From patent publication US9051248B2, “Methods, compounds, and compositions for delivering 1,3-propanedisulfonic acid” (BHI Limited Partnership, priority 2009, dated 2015)

Tests used:
[1] = In vivo study in ferrets (clinical signs after oral gavage); settings: male ferrets, oral administration, standard dose as printed
Procedure: One group of three male non-naïve ferrets (domestic strain, >16 weeks, >1.2 Kg) were starved for approximately 1.5 h prior to administration of a dosing formulation. Food was given 2 hours post dose. […] The dosing volume was adjusted to 5 mL/kg. Clinical signs were recorded throughout the study period. […] Plasma samples were stored frozen at −80° C. pending transfer to analysis. An aliquot of dosing solution (0.5 mL) was taken prior to dosing and stored frozen at −20° C. pending transfer to analysis. Animals used for multiple studies after a wash out of a minimum twelve day period.

[2] = system: Salmonella typhimurium strains (TA1535, TA1537, TA98, TA100) and Escherichia coli strain WP2 uvrA; assay: Bacterial mutation tests (Ames test); format: cell-based; settings: 1.58 to 5000 μg/plate, pre-incubation version; for Bacterial mutation test result in presence of S9: with S9 mix; for Bacterial mutation test result in absence of S9: without S9 mix
Procedure: Bacterial mutation tests were performed at Charles River Laboratories to evaluate the mutagenic potential of various prodrugs. Salmonella typhimurium strains (TA1535, TA1537, TA98, TA100) and Escherichia coli strain WP2 uvrA were treated with prodrugs at concentrations ranging from 1.58 to 5000 μg/plate in the presence and absence of a supplemented liver fraction (S9 mix) using the pre-incubation version of the bacterial mutation test. All concentrations of each compound were evaluated in triplicate. Bacteria were incubated with standard positive control agents, and the response of the various bacterial strains to these agents confirmed the sensitivity of the test system and the activity of the S9 mix.

[3] = Water stability (conversion of prodrug to 1,3PDS); format: physicochemical; settings: deionized water; for Conversion to 1,3PDS (%) 1 h / Conversion to 1,3PDS (%) 2 h: 37° C.; for Conversion to 1,3PDS (%) 0 h / Conversion to 1,3PDS (%) 24 h: room temperature; for Conversion to 1,3PDS (%) 0 h: 200 μg/mL
Procedure: The objective of this test was to determine the stability of the prodrugs in simulated gastric fluid (SGF) and water at 37° C. up to 2 hours and in water at room temperature up to 24 hours.
Simulated gastric fluid and water samples were incubated in a shaking water bath at 37° C. for up to 2 hours. The compound (prodrug) was added at Time-point 0. At each selected time point (refer to table), sample aliquots were withdrawn and analyzed to determine the concentration of 1,3-propanedisulfonic acid (1,3PDS). The concentrations of 1,3PDS were calculated based on their respective peak area. The % appearance of 1,3PDS was determined by the amounts of compound determined at each time point compared to nominal concentration (100%) of 1,3PDS generated by 100% of the prodrug (equivalent concentration).
A fresh stock solution at approximately 2 mg/mL of the compound was prepared. One stability solution at 200 μg/mL in the SGF was prepared (sample referred to as Tube A). A stability solution at 200 μg/mL in deionized water was prepared (sample referred to as Tube B). Immediately after preparation, each 200 μg/mL solution was diluted in triplicates to 20 μg/mL in deionized water and analyzed using LC-MS/MS method (Time-point 0). Thereafter, the incubation of tubes A and B was continued in the shaking water bath at 37° C. for 1 and 2 hours while one aliquot of tube B was kept at room temperature for 24 hours. At each specific time point of incubation, 3 aliquots (triplicate) of 50 μL were removed, diluted in 450 μL of water and analyzed using LC-MS/MS method. In parallel, 3 reference samples of 1,3PDS at 100, 10 and 1 μg/mL were prepared, diluted in triplicate in water and injected at the beginning and at the end of the batch. These samples were considered as reference samples.
(§1) The concentrations of 1,3PDS were calculated based on response of the reference samples and their respective peak area response. The % appearance of 1,3PDS was determined by the amounts of compound determined at each time point compared to expected nominal concentration (100%) of 1,3PDS generated by 100% of the prodrug (equivalent concentration).

[4] = Human whole blood stability; format: in vitro ADME; settings: fresh human whole blood, 37° C., about 100 μg/mL, 0 h
Procedure: The objective of this test was to determine the stability of the prodrugs in fresh human whole blood at different time-points (0, 0.5, 1, 4, 24 hours). Blood samples were incubated in a shaking water bath at 37° C. for up to 24 hours. The compound (prodrug) was added at Time-point 0, and sample aliquots were withdrawn and analyzed at each time point to determine the concentration of 1,3PDS. If possible, the loss of compound was determined by the amounts of compound determined at each time point compared to the amount determined at Time-point 0. To eliminate the conversion due to the matrix, a special Time-point 0 was prepared in pre-extracted blood sample.
Approximately 2.5 mL of whole blood was incubated in a gently shaking water bath at 37° C. for 15 minutes. Two (2) mL of the pre-incubated whole blood were aliquoted in an eppendorf tube. A 100 μL aliquot of blood was removed and 100 μL of the compound Stock Solution was added. The solution was mixed by inversion. This sample was referred to as Tube A. The final concentration of the compound in tube A was approximately at 100 μg/mL. Immediately after mixing, 100 μL of Tube A was aliquotted into 3 different eppendorf tubes. These samples were extracted as described in the “Extraction Procedure” Section. These samples were referred to Time-point 0. Thereafter, the incubation of Tube A was continued in the shaking water bath at 37° C. for 0.5, 1, 4 and 24 hours. At each specific time point of incubation, aliquots (triplicate) of 100 μL were removed and extracted as described in the “Extraction Procedure” Section. To avoid potential further degradation of compound and/or possible degradation products, the aliquot extracts were kept on ice until analysis. After extraction, samples were analyzed using LC-MS/MS method.
A volume of 300 μL of cold-ice acetonitrile was added to a 1.5 mL eppendorf tube and kept on ice until utilization. 100 μL of the sample to be extracted was added and the mix was vortexed (acetonitrile and blood). The sample was centrifuged at 16250×g (13200 rpm on IEC centrifuge with eppendorf rotor) for 5 minutes. A volume of 250 μL of the supernatant was transferred to another tube and evaporated to dryness under a nitrogen stream. The residue was reconstituted with the mobile phase. This sample was then analyzed according to 1,3PDS specific methods.
as §1, with “the nominal concentration” for “response”, “calibration standards” for “reference samples”, “ratio. A linear regression using a weight of 1/x^2 is used to derive the concentration of 1,3PDS.” for “response.”, “to” for “to expected”

Row | Compound | Clinical signs / side effects in ferrets [1] | Bacterial mutation test result in presence of S9 [2] | Bacterial mutation test result in absence of S9 [2] | Conversion to 1,3PDS (%) 1 h [3] | Conversion to 1,3PDS (%) 2 h [3] | Conversion to 1,3PDS (%) 0 h [3] | further results
1 | CCOC(=O)C(OS(=O)(=O)CCCS(=O)(=O)OC(C(=O)OCC)C(C)(C)C)C(C)(C)C (stereo not shown) [Compound B82] | no clinical signs | – | – | – | – | – | –
2 | CCOC(=O)CCC(C)(C)COS(=O)(=O)CCCS(=O)(=O)OCC(C)(C)CCC(=O)OCC [Compound B75] | 2 out of 3 animals showed abdomen scratching but recovered after 1 h | Negative | Negative | – | – | – | –
3 | CC(C)(CNC(=O)[C@H](Cc1ccccc1)NC(=O)OC(C)(C)C)COS(=O)(=O)CCCS(=O)(=O)[O-].[Na+] [A52(K)] | – | – | – | 14.6% | 18.8% | 7.0% | Conversion to 1,3PDS (%) 24 h [3]: 21.3%
4 | O=C(OCOS(=O)(=O)CCCS(=O)(=O)OCOC(=O)C1CCCCC1)C1CCCCC1 [Compound D5] | abdominal contracting and/or vomiting | – | – | – | – | – | –
5 | CC(C)(C)C(=O)OCOS(=O)(=O)CCCS(=O)(=O)OCOC(=O)C(C)(C)C [Compound D1] | green face | – | – | – | – | – | –
6 | CC(C)(CCOC(=O)c1ccccc1)COS(=O)(=O)CCCS(=O)(=O)OCC(C)(C)CCOC(=O)c1ccccc1 [Compound B23] | – | – | – | 0.0% | 0.0% | 0.0% | Conversion to 1,3PDS (%) 24 h [3]: 0.0%
7 | CC1(COS(=O)(=O)CCCS(=O)(=O)OCC2(C)CCC(=O)O2)CCC(=O)O1 (stereo not shown) [Compound B78] | – | Negative | Negative | – | – | – | –
8 | CCCC(=O)OCOS(=O)(=O)CCCS(=O)(=O)OCOC(=O)CCC [Compound D3] | abdominal contracting and/or vomiting | – | – | – | – | – | –
9 | CCOC(=O)C(C)(C)C(C)OS(=O)(=O)CCCS(=O)(=O)OC(C)C(C)(C)C(=O)OCC (stereo not shown) [Compound B68] | – | Negative | Negative | – | – | – | –
10 | CC(C)(COS(=O)(=O)CCCS(=O)(=O)OCC(C)(C)C(=O)OCc1ccccc1)C(=O)OCc1ccccc1 [Compound B30] | – | – | – | 0.0% | 0.0% | 0.0% | Conversion to 1,3PDS (% by molar ratio) 0 h [4]: BLLQ; Conversion to 1,3PDS (%) 24 h [3]: 0.0%
11 | CCOC(=O)C(OS(=O)(=O)CCCS(=O)(=O)OC(C(=O)OCC)C(C)C)C(C)C (stereo not shown) [Compound B83] | no clinical signs | Negative | Negative | – | – | – | –
12 | CC(OC(=O)NCCC(C)(C)COS(=O)(=O)CCCS(=O)(=O)O)OC(=O)C(C)C (stereo not shown) [Compound A13] | – | – | – | 0.0% | 0.0% | 0.0% | Conversion to 1,3PDS (%) 24 h [3]: 0.0%
13 | CC(C)(C)COS(=O)(=O)CCCS(=O)(=O)[O-].[Na+] [A6(Na)] | – | – | – | 1.0% | 1.6% | 0.4% | Conversion to 1,3PDS (%) 24 h [3]: 1.4%
14 | CCC(=O)OCOS(=O)(=O)CCCS(=O)(=O)OCOC(=O)CC [Compound D7] | abdominal contracting and/or vomiting | – | – | – | – | – | –
15 | CCOC(=O)C(C)(N)COS(=O)(=O)CCCS(=O)(=O)O (stereo not shown) [Compound A61] | no clinical signs | Positive | Positive | – | – | – | –
16 | O=S1(=O)CCCS(=O)(=O)OCO1 [Compound C2] | severe toxicity | – | – | – | – | – | –
17 | CC(C)[C@H](N)C(=O)NCCC(C)(C)COS(=O)(=O)CCCS(=O)(=O)OCC(C)(C)CCNC(=O)[C@@H](N)C(C)C [Compound B14] | – | – | – | 0.0% | 0.0% | 0.0% | –
18 | CC1(COS(=O)(=O)CCCS(=O)(=O)OCC2(C)CCOC2=O)CCOC1=O (stereo not shown) [Compound B76] | no clinical signs | Negative | Negative | – | – | – | –
19 | CC1(C)COC(=O)C1OS(=O)(=O)CCCS(=O)(=O)OC1C(=O)OCC1(C)C (stereo not shown) [Compound B77] | no clinical signs | Negative | Negative | – | – | – | –
20 | CC(C)(CNC(=O)[C@@H](N)Cc1ccccc1)COS(=O)(=O)CCCS(=O)(=O)O [Compound A51] | no clinical signs | Negative | Negative | 14% | 18% | 13% | –
21 | CC(OC(=O)NCCC(C)(C)COS(=O)(=O)CCCS(=O)(=O)OCC(C)(C)CCNC(=O)OC(C)OC(=O)C(C)C)OC(=O)C(C)C (stereo not shown) [Compound B13] | – | – | – | 0.4% | 0.4% | 0.3% | –
22 | CC(C)(COS(=O)(=O)CCCS(=O)(=O)OCC(C)(C)C(=O)O)C(=O)O [Compound B58] | vomiting | Positive | Positive | – | – | – | –
23 | CC(C)[C@H](N)C(=O)NCCC(C)(C)COS(=O)(=O)CCCS(=O)(=O)O [Compound A14] | – | – | – | 0.4% | 1.4% | 0.2% | –
24 | CCOC(=O)C(C)(C)COS(=O)(=O)CCCS(=O)(=O)OCC(C)(C)C(=O)OCC [Compound B29] | no clinical signs | Positive | Negative | – | – | – | –
